Measurements as given in ChEMBL document CHEMBL1799910, “Optimization of 1,2,3,4-tetrahydroacridin-9(10H)-ones as antimalarials utilizing structure-activity and structure-property relationships” (J Med Chem, 2011).
Converted amounts (≈) assume the structure as drawn.

Legend:
[1] = tested on: Plasmodium falciparum; test: Antimalarial activity against chloroquine, mefloquine, pyrimethamine and atovaquone-resistant Plasmodium falciparum TM90-C2B infected in human A positive erythrocytes after 72 hrs by SYBR Green I assay; assay type: functional, organism-based
[2] = Aqueous solubility of compound at pH 7.4 by HPLC analysis; settings: buffer
[3] = Partition coefficient, log D of the compound at pH 7.4 by HPLC analysis; settings: octanol/water
[4] = Cytotoxicity index, ratio of EC50 for mouse J774 cells to EC50 for chloroquine, mefloquine, pyrimethamine and atovaquone-resistant Plasmodium falciparum TM90-C2B; assay type: cell-based; settings: read-out: Ratio EC50
[5] = tested on: J774; test: Cytotoxicity against mouse J774 cells after 72 hrs by Cell titer 96 aqueous one solution cell proliferation assay; assay type: cell-based; settings: J774, 72 h
[6] = tested on: Plasmodium falciparum; test: Resistance index, ratio of EC50 for chloroquine, mefloquine, pyrimethamine and atovaquone-resistant Plasmodium falciparum TM90-C2B to EC50 for chloroquine and pyrimethamine-resistant Plasmodium falciparum W2; assay type: functional
[7] = Permeability of the compound by PAMPA method at pH 7.4; assay type: ADME; settings: read-out: permeability
[8] = tested on: Plasmodium falciparum; test: Antimalarial activity against chloroquine and pyrimethamine-resistant Plasmodium falciparum W2 infected in human A positive erythrocytes after 72 hrs by SYBR Green I assay; assay type: functional, organism-based; settings: W2, 72 h

Row | SMILES | EC50 [1] [nM] | solubility [2] [µM] | logD [3] | selectivity ratio [4] | EC50 [5] [nM] | Ratio EC50 [6] | Papp [7] [×10⁻⁶ cm/s] | EC50 [8] [nM]
1 | Cc1cc(C)c2[nH]c3c(c(=O)c2c1)CCCC3 | 768 | 108 (≈ 24.5 µg/mL) | 2.2 | ≥ 100 | > 40000 | 0.72 | 58 | 1070
2 | O=c1c2c([nH]c3c(Cl)cc(Cl)cc13)CCCC2 | > 9320 | 1 (≈ 0.268 µg/mL) | 3 | ≥ 100 | > 1000 | – | 252 | > 9320
3 | O=c1c2c([nH]c3c(F)ccc(F)c13)CCCC2 | 1320 | 159 (≈ 37.4 µg/mL) | 1.3 | ≥ 100 | > 40000 | 1.64 | 12 | 804
4 | O=c1c2c([nH]c3c(Cl)ccc(Cl)c13)CCCC2 | > 9320 | 108 (≈ 29 µg/mL) | 2.6 | ≥ 100 | > 20000 | – | 288 | > 9320
5 | O=c1c2c([nH]c3ccc(Cl)cc13)CCCC2 | 63.4 | 4 (≈ 0.935 µg/mL) | 2 | ≥ 100 | > 2000 | 0.63 | 57 | 99.4
6 | CN(C)CCC/N=C1\CC(c2ccc(Cl)cc2Cl)Cc2nc3ccc(Cl)cc3c(O)c21 (racemic) | 300 | – | – | ≥ 100 | – | 12 | – | 25
7 | O=c1c2c([nH]c3ccc(-c4ccc(OC(F)(F)F)cc4)cc13)CCSC2 | 58 | 1 (≈ 0.377 µg/mL) | 2.5 | ≥ 100 | > 1000 | 0.61 | < 1 | 95.1
8 | COc1cc2[nH]c3c(c(=O)c2cc1OC)CCCC3 | 3390 | 88 (≈ 22.8 µg/mL) | 1.3 | ≥ 100 | > 20000 | 0.38 | 1 | 8970
9 | Cc1cccc2[nH]c3c(c(=O)c12)CCCC3 | 4570 | 99 (≈ 21.1 µg/mL) | 2.1 | ≥ 100 | > 20000 | 0.73 | 87 | 6250
10 | CC1(C)CCc2[nH]c3ccc(Cl)cc3c(=O)c2C1 | 118 | 1 (≈ 0.262 µg/mL) | 2.6 | ≥ 100 | > 40000 | 0.46 | 63 | 256
11 | O=c1c2c([nH]c3c(Cl)cccc13)CCCC2 | > 9000 | 107 (≈ 25 µg/mL) | 2.2 | ≥ 100 | > 20000 | >7.9 | 107 | 1350
12 | O=c1c2c([nH]c3cc(F)c(F)cc13)CCCC2 | 118 | 18 (≈ 4.23 µg/mL) | 1.9 | ≥ 100 | > 10000 | 0.91 | 28 | 129
13 | O=c1c2c([nH]c3cccc(Cl)c13)CCCC2 | 447 | 99 (≈ 23.1 µg/mL) | 1.8 | ≥ 100 | > 5000 | 1.22 | 47 | 368
14 | Cc1cccc2[nH]c3c(c(=O)c12)CC(C)(C)CC3 | 4130 | 45 (≈ 10.9 µg/mL) | 2.7 | ≥ 100 | > 40000 | 1.37 | 269 | 3020
15 | CC1(C)CCc2[nH]c3c(Cl)cccc3c(=O)c2C1 | 4730 | 62 (≈ 16.2 µg/mL) | 2.9 | ≥ 100 | > 20000 | 1.01 | 427 | 4670
16 | COc1cccc2c(=O)c3c([nH]c12)CC(C)(C)CC3 | 2490 | 91 (≈ 23.4 µg/mL) | 2.4 | ≥ 100 | > 20000 | 0.38 | 114 | 6540
17 | Cc1cccc2c(=O)c3c([nH]c12)CCC(C)(C)C3 | 531 | 38 (≈ 9.17 µg/mL) | 2.3 | ≥ 100 | > 40000 | 0.67 | 90 | 791
18 | COc1cccc2c(=O)c3c([nH]c12)CCC(C)(C)C3 | 620 | 91 (≈ 23.4 µg/mL) | 2.4 | ≥ 100 | > 40000 | 0.31 | 95 | 1990
19 | O=c1c2c([nH]c3ccc(-c4ccc(OCc5ccccc5)cc4)cc13)CCSC2 | 370 | 1 (≈ 0.4 µg/mL) | 2.8 | ≥ 100 | > 1000 | 10.3 | < 1 | 35.9
20 | O=c1c2c([nH]c3cc(C(F)(F)F)ccc13)CCC2 | 438 | 98 (≈ 24.8 µg/mL) | 2.3 | ≥ 100 | > 40000 | 0.19 | 60 | 2320

Row | SMILES | EC50 [1] [nM] | solubility [2] [µM] | logD [3] | selectivity ratio [4] | EC50 [5] [nM] | Ratio EC50 [6] | Papp [7] [×10⁻⁶ cm/s] | EC50 [8] [nM]
21 | O=c1c2c([nH]c3cc(F)ccc13)CCCC2 | 119 | 46 (≈ 9.99 µg/mL) | 1.7 | ≥ 100 | > 20000 | 1.76 | 21 | 67.7
22 | CC1(C)CCc2c([nH]c3ccccc3c2=O)C1 | 335 | 64 (≈ 14.5 µg/mL) | 1.9 | ≥ 100 | > 40000 | 0.18 | 43 | 1870
23 | CC(C)c1ccc2[nH]c3c(c(=O)c2c1)CCCC3 | 732 | 30 (≈ 7.24 µg/mL) | 2.2 | ≥ 100 | > 40000 | 0.83 | 100 | 879
24 | COc1cccc2[nH]c3c(c(=O)c12)CCC(C)(C)C3 | 4100 | 64 (≈ 16.5 µg/mL) | 1.7 | ≥ 100 | > 20000 | <0.42 | 43 | > 9720
25 | CC(C)(C)c1cccc2c(=O)c3c([nH]c12)CCCC3 | > 9790 | 90 (≈ 23 µg/mL) | 3.3 | ≥ 100 | > 10000 | – | 553 | > 9790
26 | COc1ccc2[nH]c3c(c(=O)c2c1)CCC(C)(C)C3 | > 9720 | 9.2 (≈ 2.37 µg/mL) | 2.3 | ≥ 100 | > 5000 | – | 128 | > 9720
27 | COc1ccc(OC)c2c(=O)c3c([nH]c12)CCCC3 | > 9640 | 105 (≈ 27.2 µg/mL) | 1.5 | ≥ 100 | > 20000 | – | 9 | > 9640
28 | Cc1cc2[nH]c3c(c(=O)c2cc1C)CCCC3 | 216 | 41 (≈ 9.32 µg/mL) | – | – | > 20000 | – | 46 | 262
29 | O=C1CC(c2ccc(Cl)cc2Cl)Cc2nc3ccc(Cl)cc3c(O)c21 (centres undefined) | 27.8 | 1 (≈ 0.393 µg/mL) | 3.1 | ≥ 100 | – | 3.19 | 20 | 8.71
30 | CC1(C)CCc2c([nH]c3cc(Cl)ccc3c2=O)C1 | 645 | 1 (≈ 0.262 µg/mL) | 2.9 | ≥ 100 | > 1000 | 0.6 | – | 1080
31 | O=c1c2c([nH]c3cc(Br)ccc13)CCSC2 | > 8440 | 17 (≈ 5.04 µg/mL) | 0.9 | ≥ 100 | > 10000 | – | 6.3 | 667
32 | CC(C)Oc1cc2[nH]c3c(c(=O)c2cc1Cl)CCCC3 | 104 | 0.3 (≈ 0.0875 µg/mL) | 2.9 | ≥ 100 | > 100 | 4.88 | – | 21.3
33 | Cc1cccc2[nH]c3c(c(=O)c12)CCC(C)(C)C3 | > 9990 | 9 (≈ 2.17 µg/mL) | 2.8 | ≥ 100 | > 5000 | – | 240 | > 9990
34 | O=c1c2c([nH]c3c(C(F)(F)F)cccc13)CCCC2 | > 9350 | 116 (≈ 31 µg/mL) | 2.6 | ≥ 100 | > 20000 | – | 246 | > 9350
35 | O=C1C(O)=C([C@H]2CC[C@H](c3ccc(Cl)cc3)CC2)C(=O)c2ccccc21 [ATOVAQUONE] | > 170 | – | – | – | – | – | – | 0.53
36 | C[C@H]1[C@@H](O)O[C@@H]2O[C@@]3(C)CC[C@H]4[C@H](C)CC[C@@H]1[C@@]24OO3 [ARTENIMOL] | 0.9 | – | – | – | – | – | – | 1.8
37 | O=c1c2c([nH]c3ccc(Oc4ccc(F)cc4)cc13)CCCC2 | 47 | 8 (≈ 2.47 µg/mL) | 2.8 | ≥ 100 | > 5000 | 0.28 | – | 169
38 | Cc1cc(C)c2c(=O)c3c([nH]c2c1)CCCC3 | 4830 | 17 (≈ 3.86 µg/mL) | 2.4 | ≥ 100 | – | 1.54 | 218 | 3130
39 | CN1CCc2[nH]c3ccccc3c(=O)c2C1 | > 9990 | 33 (≈ 7.07 µg/mL) | 1 | ≥ 100 | > 20000 | – | 21 | > 9990
